{"source": "paper PMC8880714", "about": "“Antimicrobial effect and mechanism of bovine lactoferrin against the potato common scab pathogen Streptomyces scabiei” (PLoS ONE, 2022)", "key": {"Streptomyces scabiei S58": {"test_system": "Streptomyces scabiei S58", "assay": "microbe, parasite or virus in culture", "type": "cell-based", "procedure": "S. scabiei S58, isolated from potatoes grown in Kagoshima, Japan, was used in this study. […] For antimicrobial assays, the spores of the isolate were incubated at 28 °C in tryptic soy broth (TSB) (Becton Dickinson, Sparks, USA). Escherichia coli strains JM109 and BL21(λDE3) were grown at 37 °C in Luria-Bertani broth supplemented with 100 μg/mL ampicillin for propagation.\nA 12-well plate was used to assess the antimicrobial activity of LF, hydrolysate, LFcinB, and synthetic peptides. One milliliter of TSB containing each test substance was added to each well and then the spores of S. scabiei S58, prepared as described above, were added into each well at a final concentration of 2 × 10^5 spores/mL. The mixture was incubated at 28 °C for 72 h, and the absorbance was measured at 600 nm to monitor bacterial growth. To further confirm whether the antimicrobial activity is due to growth inhibition or bactericidal effect, 1 mL of TSB containing 2 ×10^3 spores and bLF (1 mg/mL) was incubated at 28 °C and directly cultured on STA after 5, 10, 15, 24, 48, and 72 h of incubation to count the emerging colonies. All assays were performed in duplicate and were repeated three times."}, "[1]": {"assay": "pH of the medium in which the substance was dissolved", "type": "physicochemical", "source_text": "On the contrary, in the assay of Trp alone at high concentrations, because Trp cannot bind to the cell surface by itself, only a few numbers could reach the membrane (Fig 8C). In summary, Trp must reach the cell membrane to exert its antimicrobial activity. We speculated that the change in the chemical structures and properties of Arg and Trp may affect their antimicrobial activity, that is, the ability to bind to the bacterial cell surface. Therefore, we used Arg and Trp derivatives, namely arginine hydrochloride, tryptophan methyl ester hydrochloride, and tryptophan ethyl ester hydrochloride, which are easily available. Intriguingly, arginine hydrochloride completely lost the antimicrobial activity against S. scabiei shown by Arg (Fig 7A and 7C). Sephai et al. (2017) reported that the antimicrobial activity of poly-arginine is influenced by pH; at mild acidic pH (5 and 6), its MIC values decreased. We measured the pH of the medium in which arginine or arginine hydrochloride was dissolved and found it to be 9.5 and 5.5, respectively. Streptomyces spp. can grow at pH values ranging from 4.0 to 11.5 [63]. Teichoic and lipoteichoic acids in gram-positive bacterial cell walls are esterified to D-Ala residues and at neutral or lower pH, the amino group of D-Ala (pKa 8.42) is protonated, conferring a neutral or positive charge to the cell walls. […]"}, "[2]": {"conditions": "spores 2 × 10^5/mL, TSB, 28 °C, 72 h, absorbance 600 nm"}, "[3]": {"conditions": "S. scabiei S58 spores 2 × 10^5/mL, TSB, 28 °C, 72 h, absorbance 600 nm, probit analysis, mean ± SD, n = 3, N/A = no antimicrobial activity, read-out: Antimicrobial activity (IC50)"}}, "note": "Like-named read-outs stand apart in the source and are kept apart here. Where no end group is shown, it is not given here."}
{"molecule": "Cl.N=C(N)NCCC[C@H](N)C(=O)O", "note": "[Arginine hydrochloride]", "values": [{"measurement": "Antimicrobial activity, in words", "setting": "Streptomyces scabiei S58; [2]", "result": "complete loss of activity"}, {"measurement": "pH of the medium in which the substance was dissolved", "setting": "[1]", "result": 5.5}]}
{"molecule": "N=C(N)NCCC[C@H](N)C(=O)O", "note": "[Arginine]", "values": [{"measurement": "IC50", "setting": "Streptomyces scabiei S58; Streptomyces scabiei, S58, 72 h, read-out: Antimicrobial activity (IC50)", "result": "14300 ± 1400", "unit": "µM"}, {"measurement": "Concentration necessary to completely inhibit the growth of S. scabiei", "setting": "Streptomyces scabiei S58; [2]", "result": 40, "unit": "mM"}, {"measurement": "pH of the medium in which the substance was dissolved", "setting": "[1]", "result": 9.5}]}
{"molecule": "CC[C@H](C)[C@@H]1NC(=O)[C@H](CO)NC(=O)[C@@H]2CCCN2C(=O)[C@H](C)NC(=O)CNC(=O)[C@H](CC(C)C)NC(=O)[C@H](CCCCN)NC(=O)[C@H](CCCCN)NC(=O)[C@H](CCSC)NC(=O)[C@H](CCCNC(=N)N)NC(=O)[C@H](Cc2c[nH]c3ccccc23)NC(=O)[C@H](CCC(N)=O)NC(=O)[C@H](Cc2c[nH]c3ccccc23)NC(=O)[C@H](CCCNC(=N)N)NC(=O)[C@H](CCCNC(=N)N)NC(=O)[C@@H](NC(=O)[C@H](CCCCN)NC(=O)[C@@H](N)Cc2ccccc2)CSSC[C@@H](C(=O)N[C@H](C(=O)N[C@@H](CCCNC(=N)N)C(=O)N[C@@H](CCCNC(=N)N)C(=O)N[C@@H](C)C(=O)N[C@@H](Cc2ccccc2)C(=O)O)C(C)C)NC(=O)[C@H]([C@@H](C)O)NC1=O", "note": "[Bovine lactoferricin (LFcinB)]", "values": [{"measurement": "Concentration at which no growth of S. scabiei was observed", "setting": "Streptomyces scabiei S58; [2]", "result": 3.2, "unit": "µM"}]}
{"molecule": "CCOC(=O)[C@@H](N)Cc1c[nH]c2ccccc12.Cl", "note": "[Tryptophan ethyl ester hydrochloride]", "values": [{"measurement": "IC50", "setting": "Streptomyces scabiei S58; [3]", "result": "1303 ± 4", "unit": "µM"}, {"measurement": "Antimicrobial activity, in words", "setting": "Streptomyces scabiei S58; [2]", "result": "much higher activity than that of tryptophan"}]}
{"molecule": "COC(=O)[C@@H](N)Cc1c[nH]c2ccccc12.Cl", "note": "[Tryptophan methyl ester hydrochloride]", "values": [{"measurement": "IC50", "setting": "Streptomyces scabiei S58; [3]", "result": "2860 ± 326", "unit": "µM"}, {"measurement": "Antimicrobial activity, in words", "setting": "Streptomyces scabiei S58; [2]", "result": "much higher activity than that of tryptophan"}]}
{"molecule": "N[C@@H](Cc1c[nH]c2ccccc12)C(=O)O", "note": "[Tryptophan]", "values": [{"measurement": "inhibition at 40000 µM", "setting": "Streptomyces scabiei S58; Streptomyces scabiei, S58, read-out: Inhibition of growth of S. scabiei", "result": 40, "unit": "%"}]}
{"molecule": "QQWWWQ [Synthetic peptide containing three Trp residues and no Arg residue]", "values": [{"measurement": "Antimicrobial activity, in words", "setting": "Streptomyces scabiei S58; [2]", "result": "complete loss of activity"}]}
{"molecule": "RRRQRR [Synthetic peptide containing no Trp residue]", "values": [{"measurement": "Antimicrobial activity, in words", "setting": "Streptomyces scabiei S58; [2]", "result": "completely lost its activity"}]}
{"molecule": "RRWQWR [RRWQWR]", "values": [{"measurement": "IC50", "setting": "Streptomyces scabiei S58; 72 h", "result": "48 ± 9", "unit": "µM"}]}
{"molecule": "RRWWWR [RRWWWR]", "values": [{"measurement": "IC50", "setting": "Streptomyces scabiei S58; 72 h", "result": "27 ± 2", "unit": "µM"}]}
